Earlier results in patent US20180185286A1, “POROUS MATERIALS CONTAINING COMPOUNDS INCLUDING […] ACTIVE SPECIES” (NOVARTIS PHARMA AG, priority 2014, published 2018).
In brackets after ≈: the same amount, converted by molar mass.

Settings: in the absence of being incorporated within a porous material

Compound | aqueous solubility
O=C1[C@H](CC[C@H](O)c2ccc(F)cc2)[C@@H](c2ccc(O)cc2)N1c1ccc(F)cc1 [ezetimibe] | essentially insoluble in aqueous solutions
CC(C)Cc1ccc(C(C)C(=O)O)cc1 (centres unmarked) [ibuprofen] | 0.038 mg/mL (≈ 184 µM)
CCOC(=O)C1=C(C)NC(C)=C(C(=O)OC)C1c1cccc(Cl)c1Cl (centres unmarked) [felodipine] | 0.019 mg/mL (≈ 49.4 µM)

More lines, now with the values ahead:

aqueous solubility | Compound
0.0025 mg/mL (≈ 6.99 µM) | COc1ccc2c(c1)c(CC(=O)O)c(C)n2C(=O)c1ccc(Cl)cc1 [indomethacin]
0.038 mg/mL (≈ 102 µM) | O=C(O)c1ccc(-n2nc(-c3ccccc3O)nc2-c2ccccc2O)cc1 [deferasirox]
